Series [1] can be described thus: Fluorescein (CF) leakage from SUVs. To be noted: for threshold concentration of fast leakage increase, PC/PG SUVs: end of the low leakage induction range; for concentration for 20% leakage, PC/Chol. vesicles / concentration for 20% leakage, PC/PG vesicles / concentration for 100% leakage, PC/Chol. vesicles / concentration for 100% leakage, PC/PG vesicles / concentration for minimal leakage, PC/Chol. vesicles / concentration for minimal leakage, PC/PG vesicles / EC50: CF-SUVs 0.25 mg/mL in TBS pH 7.2, fluorescence ex 480/em 520 nm, read from Figure 5. The protocol: Lipid SUVs with single or multiple components were used to model different biomembranes. In this work, two lipid mixtures with different surface charges were used to mimic bacterial inner membranes with the molar ratio of POPC/POPG of 7:3 and mammalian cytoplasmic cell membranes with a molar ratio of POPC/cholesterol of 1:1. Lipids (or cholesterol) were dissolved and mixed in chloroform, and then, the solvent was removed via evaporation and lyophilization. Dry lipids were dissolved in Tris buffered saline (TBS, containing 10 mM Tris-HCl and 154 mM NaCl, with a final pH of 7.2) and were fully dispersed via sonication. After five freeze/thaw loops of the lipid solution, SUVs were prepared by extruding 31 times using an Avanti Polar Lipids mini extruder. SUV solutions were diluted to 0.5 mg/ml for further use.
Concentration effects of the binding of amphiphiles to lipid SUVs were examined by means of fluorescein leakage. 5(6)-Carboxyfluorescein (CF)-entrapped SUVs (CF-SUVs) were prepared as described previously,[26] except that dried lipids were dissolved into 40 mM TBS solution of CF before the freeze/thaw loop. After extrusion, CF-SUVs were separated from unentrapped fluorescein molecules using a Sephadex G50 chromatography column. Amphiphile solutions of various concentrations were then blended in a 1:1 ratio with CF-SUVs, giving a mixture of amphiphiles of the desired concentration and CF-SUVs of concentration 0.25 mg/mL. A Thermo Scientific Varioskan LUX was employed to determine the amount of released CF in each sample by measuring their emission intensity I520, with an excitation wavelength of 480 nm and an emission wavelength of 520 nm. CF-SUVs alone and with added 0.2% Triton-X were measured as positive and negative controls (I+ and I–), respectively. The percentage of leakage L for each sample was calculated using Ln = (In,520 – I+)/(I– – I+) × 100%.

The test system of series [2] is Human dermal fibroblasts cells (adult, HDFa cells). The series is classed as cell-based. The note with it: MTT assay, 24 h exposure, 37 °C, absorbance 570 nm, sigmoidal fit; ± SD, at least three replicates; read-out: EC50, HDFa. The protocol:
(§1) Human dermal fibroblasts cells (adult, HDFa cells) and NIH 3T3 fibroblasts cells (3T3 cells, ATCC-1658) were cultured at 37 °C in Dulbecco’s modified Eagle medium (ATCC30-2002, added with 10% heat-inactivated fetal bovine serum) with a continuous supply of CO2 at a 5% level. MTT assays were carried out to examine in vitro cytotoxicity of the amphiphiles.[22] Cells were first inoculated in flat-bottom 96-well plates, rendering 8 × 10^3 cells in 100 μL of medium for each well, and were incubated for 24 h. The cells were mixed with 100 μL of a solution of an amphiphile with 2 times the selected concentrations. Cells were then exposed to the solutions of each amphiphile for 24 h, after which 10 μL of 5 mg/mL MTT solution was added into each well, and the reaction was allowed for 2 h. 200 μL of dimethyl sulfoxide was then added to each well to dissolve the transformed MTT formazan. Light absorbance of the samples was measured using a Thermo Scientific Varioskan LUX at 570 nm. Cell samples 100% viable and 100% dead were employed as the positive control and negative control, respectively. Dose response curves were obtained by applying sigmoidal function fittings to obtain 50% effective concentrations (EC50).

Series [3] concerns NIH 3T3 fibroblasts cells (3T3 cells, ATCC-1658). The series is classed as cell-based. The note with it: MTT assay, 24 h exposure, 37 °C, absorbance 570 nm, sigmoidal fit; ± SD, at least three replicates; read-out: EC50, NIH/3T3. As for the experimental part: as §1
Series [4] has as its system C. albicans SC5314 (ATCC MYA-2876). It counts as cell-based, Candida albicans. To be noted: for MIC/CAC, converted data, C. albicans: MIC divided by the amphiphile's CAC; for MIC, C. albicans: microdilution in RPMI 1640, 30 °C, 48 h, 10^5 CFU/mL, by eye and OD600, ± SD, at least three replicates. As for the experimental part: (§2) E. coli (ATCC 25922), S. aureus (ATCC 6538), and C. albicans SC5314 (ATCC MYA-2876) were purchased from the American Type Culture Collection (ATCC). The two bacterial strains, E. coli and S. aureus, were cultured in Mueller Hinton broth at 37 °C; while the yeast strain, C. albicans, was grown in RPMI 1640 medium at 30 °C. The microdilution method was employed to determine MICs of the amphiphiles against the microorganism strains listed above.[21] Solutions of lipopeptides and biocides were half-diluted serially in 96-well plates using PBS buffer containing 137 mM NaCl, 2.7 mM KCl, 8.1 mM Na2HPO4, and 1.9 mM KH2PO4 for E. coli and S. aureus and using RPMI 1640 for C. albicans. Overnight incubations of the strains, in each respective growth medium, were then inoculated into each well, giving final concentrations of 10^6 CFU/mL for E. coli and S. aureus and 10^5 CFU/mL for C. albicans. Culture media without microorganisms and amphiphiles were employed as positive controls, while fresh microorganism cultures without amphiphiles were used as negative controls. Each plate has both positive controls and negative controls. The plates were then incubated at an appropriate temperature (stated above) for 24 h for the bacterial strains and 48 h for the yeast strain. MICs of each sample were first determined by eye. A more quantitative analysis was carried out by measuring optical densities at 600 nm (OD600) of each well using a Sunrise absorbance microplate reader (Tecan Group Ltd.). Inhibitory ratios (IRs) of each sample at a given concentration against a specific strain, denoted as IRi, were calculated by IRi = (OD600,negative control – OD600,i)/(OD600,negative control – OD600,positive control) × 100%. All experiments were repeated at least three times with each group containing three replicates. To better analyze concentration–IR relationships, sigmoidal function fittings were employed to generate the best fitted dose response curve for each situation.

The conditions of series [5]: previous findings by Lu et al.; cited from earlier work. From the text:
From the best fitted surface tension parameters (listed in Table S2), the area per molecule (APM) could be calculated from eq 4 for each amphiphile at its respective CAC. […] This is in line with the previous findings by Lu et al., which stated that APMs of C10TAB, C12TAB, C14TAB, C16TAB, and C18TAB adsorbed on the surface of water were 55 ± 3, 50 ± 2, 48 ± 3, 43 ± 3, and 43 ± 3 Å^2, respectively.[29]−[33] Each lipopeptide molecule occupied around 79 ± 10 Å^2 at ...

The subject of the next series is E. coli (ATCC 25922). The series is classed as cell-based, Escherichia coli. To be noted: for MIC/CAC, converted data, E. coli: MIC divided by the amphiphile's CAC; for MIC, E. coli: microdilution, serial half-dilution in PBS, Mueller Hinton broth, 37 °C, 24 h, 10^6 CFU/mL, by eye and OD600, ± SD, at least three replicates. As for the experimental part:
as §2

The mark [6] stands for this setting: read-out: concentration for 50% leakage, PC/Chol. vesicles.
Setting [7] is: read-out: concentration for 50% leakage, PC/PG vesicles.

Structures are written as SMILES. Values joined by “and” are separate entries in the source; they are usually repeats but may differ in a detail not shown here. Equal values may be shown once. Read-outs that look alike come from different tables or passages of the source.

With `CCCCCCCCCCCC[N+](C)(C)C.[Br-]` [C12TAB, dodecyltrimethylammonium bromide], in series [1] (CF leakage, end of the low leakage induction period), the “concentration above which fast leakage was induced, PC/chol SUVs” value was about 70 µM. Moreover, the “threshold concentration of fast leakage increase, PC/PG SUVs” value in series [1] (CF leakage) is 75 µM. Besides, in series [1], the “concentration for 20% leakage, PC/Chol. vesicles” value worked out at 500 µM; the “concentration for 20% leakage, PC/PG vesicles” value is 125 µM; the “concentration for 100% leakage, PC/Chol. vesicles” value is over 2000 µM; the “concentration for 100% leakage, PC/PG vesicles” value was “above 1000 μM and 1000 μM”. Moreover, in series [1], the “concentration for minimal leakage, PC/Chol. vesicles” value came out at 10 µM; the “concentration for minimal leakage, PC/PG vesicles” value was “around 16 μM and 75 μM”. Also, in series [1] (setting [6]), the EC50 was determined as 2000 µM. The EC50 in series [1] (setting [7]) was determined as 256 µM. Moreover, the “leakage, PC/PG SUVs” value in series [1] (at 256 μM) turned out to be 60%. Further, the “leakage, PC/PG SUVs” value in series [1] (from 16 to 75 μM) is given as “less than 10%”. Besides, the EC50 in series [2] stood at 17 ± 5 µM. In addition, the EC50 in series [3] was found to be 12 ± 4 µM. In series [4], the “MIC/CAC, converted data, C. albicans” value is 0.10 ± 0.03 and the “MIC, C. albicans” value was 100 ± 30 µM. In series [5], the “APM adsorbed on the surface of water” value is 50 ± 2 Å^2. In addition, in the series on E. coli (ATCC 25922), the “MIC/CAC, converted data, E. coli” value amounted to 0.20 ± 0.04 and the “MIC, E. coli” value was 200 ± 40 µM.
As for `CCCCCCCCCCCCCC[N+](C)(C)C.[Br-]` [C14TAB, tetradecyltrimethylammonium bromide], in series [1] (CF leakage), the “threshold concentration of fast leakage increase, PC/PG SUVs” value came out at 16 µM. Moreover, in series [1], the “concentration for 20% leakage, PC/Chol. vesicles” value is 10 µM; the “concentration for 20% leakage, PC/PG vesicles” value was determined as 30 µM; the “concentration for 100% leakage, PC/Chol. vesicles” value is over 500 µM; the “concentration for 100% leakage, PC/PG vesicles” value came out at 500 µM. For the same compound, in series [1], the “concentration for minimal leakage, PC/Chol. vesicles” value is “around 4 μM” and the “concentration for minimal leakage, PC/PG vesicles” value came to 4 µM. Besides, the EC50 in series [1] (setting [6]) is 100 µM. For the same compound, the EC50 in series [1] (setting [7]) was 50 µM. The “maximum leakage, PC/chol SUVs” value in series [1] (at 100 μM and above) was 50%. Besides, the EC50 in series [2] came out at 7 ± 3 µM. The EC50 in series [3] came to 3 ± 1 µM. Besides, in series [4], the “MIC/CAC, converted data, C. albicans” value was determined as 0.12 ± 0.02 and the “MIC, C. albicans” value amounted to 12 ± 2 µM. For the same compound, in series [5], the “APM adsorbed on the surface of water” value was 48 ± 3 Å^2. For the same compound, in the series on E. coli (ATCC 25922), the “MIC/CAC, converted data, E. coli” value is 1 and 1.00 ± 0.30; the “MIC, E. coli” value turned out to be 100 ± 30 µM.

Source of the values: paper PMC9161444, “In-Membrane Nanostructuring of Cationic Amphiphiles Affects Their Antimicrobial Efficacy and Cytotoxicity: A Comparison Study between a De Novo Antimicrobial Lipopeptide and Traditional Biocides” (Langmuir, 2022).
